In one data set the test system is Dendritic cell. Briefly: Induction of IFNalpha secretion in human plasmacytoid dendritic cells at 200 ug/ml after 24 hrs by Luminex Multiplex assay. Format: functional.
For data set [1], the target named is T1, Toll-like receptor 8 (Homo sapiens) (UniProt Q9NR97).
T1 sequence (whole entry): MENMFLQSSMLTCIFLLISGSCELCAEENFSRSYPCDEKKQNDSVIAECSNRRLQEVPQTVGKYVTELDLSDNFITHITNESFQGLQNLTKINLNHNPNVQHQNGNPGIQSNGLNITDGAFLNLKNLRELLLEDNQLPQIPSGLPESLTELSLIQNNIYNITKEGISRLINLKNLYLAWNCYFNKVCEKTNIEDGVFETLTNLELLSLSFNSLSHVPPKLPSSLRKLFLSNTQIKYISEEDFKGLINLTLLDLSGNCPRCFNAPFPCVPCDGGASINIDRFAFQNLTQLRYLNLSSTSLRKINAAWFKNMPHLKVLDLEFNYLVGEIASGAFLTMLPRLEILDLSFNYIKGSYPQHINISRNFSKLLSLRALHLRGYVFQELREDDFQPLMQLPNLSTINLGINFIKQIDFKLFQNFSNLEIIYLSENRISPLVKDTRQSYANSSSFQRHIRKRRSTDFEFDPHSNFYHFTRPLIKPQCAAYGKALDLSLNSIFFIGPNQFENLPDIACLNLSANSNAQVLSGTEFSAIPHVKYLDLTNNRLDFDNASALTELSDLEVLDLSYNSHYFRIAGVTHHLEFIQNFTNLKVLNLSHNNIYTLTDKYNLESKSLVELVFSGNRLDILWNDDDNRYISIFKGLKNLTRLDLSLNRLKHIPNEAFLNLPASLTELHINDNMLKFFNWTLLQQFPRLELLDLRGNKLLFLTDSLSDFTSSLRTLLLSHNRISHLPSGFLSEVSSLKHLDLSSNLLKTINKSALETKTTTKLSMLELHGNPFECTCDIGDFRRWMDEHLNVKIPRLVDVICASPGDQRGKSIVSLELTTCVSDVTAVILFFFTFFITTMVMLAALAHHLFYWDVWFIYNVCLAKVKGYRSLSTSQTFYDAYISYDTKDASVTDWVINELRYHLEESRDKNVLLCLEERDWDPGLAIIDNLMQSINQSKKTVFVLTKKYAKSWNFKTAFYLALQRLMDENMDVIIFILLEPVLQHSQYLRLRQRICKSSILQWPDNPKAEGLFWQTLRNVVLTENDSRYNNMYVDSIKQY
Briefly: Activation of human TLR8 expressed in HEK293 cells assessed as increase in NF-kappaB activation at 100 ug/ml by SEAP assay. Format: cell-based.

In data set [2] the target is T2, Toll-like receptor 7 (Homo sapiens) (UniProt Q9NYK1).
T2 sequence (whole entry): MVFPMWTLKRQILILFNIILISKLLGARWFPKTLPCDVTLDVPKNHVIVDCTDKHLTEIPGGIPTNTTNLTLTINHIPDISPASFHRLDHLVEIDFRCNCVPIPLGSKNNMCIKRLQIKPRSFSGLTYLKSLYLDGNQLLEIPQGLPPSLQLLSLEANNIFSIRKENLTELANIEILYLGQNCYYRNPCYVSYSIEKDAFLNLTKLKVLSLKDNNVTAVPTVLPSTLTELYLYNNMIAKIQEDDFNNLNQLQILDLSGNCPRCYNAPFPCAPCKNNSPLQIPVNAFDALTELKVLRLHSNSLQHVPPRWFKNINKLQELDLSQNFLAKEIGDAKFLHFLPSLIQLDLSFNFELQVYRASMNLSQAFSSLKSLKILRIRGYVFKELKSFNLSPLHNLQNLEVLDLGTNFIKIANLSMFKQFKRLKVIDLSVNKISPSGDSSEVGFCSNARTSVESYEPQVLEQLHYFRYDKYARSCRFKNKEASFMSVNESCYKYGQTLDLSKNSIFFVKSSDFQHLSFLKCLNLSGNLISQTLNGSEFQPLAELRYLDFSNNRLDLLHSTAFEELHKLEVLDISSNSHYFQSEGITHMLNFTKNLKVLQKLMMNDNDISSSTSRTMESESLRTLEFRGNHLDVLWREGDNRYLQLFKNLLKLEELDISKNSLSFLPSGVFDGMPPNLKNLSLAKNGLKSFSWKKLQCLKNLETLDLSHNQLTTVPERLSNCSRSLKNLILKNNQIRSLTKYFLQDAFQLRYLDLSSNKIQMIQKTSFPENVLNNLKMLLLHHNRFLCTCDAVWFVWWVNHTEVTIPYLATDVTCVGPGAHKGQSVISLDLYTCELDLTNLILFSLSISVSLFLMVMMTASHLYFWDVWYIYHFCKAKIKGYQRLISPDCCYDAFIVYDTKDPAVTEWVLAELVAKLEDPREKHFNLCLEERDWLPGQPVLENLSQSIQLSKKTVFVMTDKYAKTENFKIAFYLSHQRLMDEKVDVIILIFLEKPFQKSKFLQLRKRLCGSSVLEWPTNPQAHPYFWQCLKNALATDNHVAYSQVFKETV
Briefly: Activation of human TLR7 expressed in HEK293 cells assessed as increase in NF-kappaB activation at 100 ug/ml by SEAP assay. Format: cell-based.

The test system of data set [3] is spleen. Briefly: Induction of cytokine secretion in C57BL/6 mouse spleen cells at 100 ug/ml after 24 hrs by Luminex Multiplex assay. Format: functional, cell-based.
Data set [4] deals with spleen. Briefly: Induction of chemokine secretion in C57BL/6 mouse spleen cells 100 ug/ml after 24 hrs by Luminex Multiplex assay. Format: functional, cell-based.
Data set [5] relates to PBMC. As to the kind of experiment: Induction of IL12 secretion in human PBMC after 24 hrs by Luminex Multiplex assay. Format: functional, cell-based.
Data set [6] deals with PBMC. As to the kind of experiment: Induction of IFNalpha secretion in human PBMC after 24 hrs by Luminex Multiplex assay. Format: functional, cell-based.
Data set [7] has as its system PBMC. As to the kind of experiment: Induction of IFN-gamma secretion in human PBMC after 24 hrs by Luminex Multiplex assay. Format: functional, cell-based.
A short description of data set [8]: Stability in 1% human serum assessed as full length product after 10 mins. Type of data set: ADME, cell-free. Particulars: read-out: Stability.
The subject of data set [9] is PBMC. Briefly: Induction of IL1-beta secretion in human PBMC after 24 hrs by Luminex Multiplex assay. Format: functional, cell-based.
Data set [10] relates to PBMC. Briefly: Induction of IL2R secretion in human PBMC after 24 hrs by Luminex Multiplex assay. Type of data set: functional, cell-based.
In data set [11] the test system is PBMC. Briefly: Induction of IL10 secretion in human PBMC after 24 hrs by Luminex Multiplex assay. Format: functional, cell-based.

The source made the active and inactive calls. No cut-off for these calls is given here.

In the case of `Nc1ccn([C@@H]2O[C@H](COP(O)(=S)O[C@H]3[C@@H](O)[C@H](n4ccc(=O)[nH]c4=O)O[C@@H]3COP(O)(=S)O[C@H]3[C@@H](O)[C@H](n4ccc(=O)[nH]c4=O)O[C@@H]3COP(O)(=S)O[C@H]3[C@@H](O)[C@H](n4ccc(N)nc4=O)O[C@@H]3COP(O)(=S)O[C@H]3[C@@H](O)[C@H](n4ccc5c(=O)[nH]c(N)nc54)O[C@@H]3COP(O)(=S)O[C@H]3[C@@H](O)[C@H](n4ccc(=O)[nH]c4=O)O[C@@H]3COP(O)(=S)O[C@H]3[C@@H](O)[C@H](n4ccc(N)nc4=O)O[C@@H]3COP(O)(=S)O[C@H]3[C@@H](O)[C@H](n4ccc5c(=O)[nH]c(N)nc54)O[C@@H]3COP(O)(=S)O[C@H]3[C@@H](O)[C@H](n4ccc(=O)[nH]c4=O)O[C@@H]3CO)[C@@H](OP(O)(=S)OC[C@H]3O[C@@H](n4ccc(=O)[nH]c4=O)[C@H](O)[C@@H]3OP(O)(=S)OC[C@H]3O[C@@H](n4ccc5c(=O)[nH]c(N)nc54)[C@H](O)[C@@H]3OP(O)(=S)OCCC(O)CCOP(O)(=S)O[C@H]3[C@@H](O)[C@H](n4ccc5c(=O)[nH]c(N)nc54)O[C@@H]3COP(O)(=S)O[C@H]3[C@@H](O)[C@H](n4ccc(=O)[nH]c4=O)O[C@@H]3COP(O)(=S)O[C@H]3[C@@H](O)[C@H](n4ccc(N)nc4=O)O[C@@H]3COP(O)(=S)O[C@H]3[C@@H](O)[C@H](n4ccc(=O)[nH]c4=O)O[C@@H]3COP(O)(=S)O[C@H]3[C@@H](O)[C@H](n4ccc(=O)[nH]c4=O)O[C@@H]3COP(O)(=S)O[C@H]3[C@@H](O)[C@H](n4ccc(N)nc4=O)O[C@@H]3COP(O)(=S)O[C@H]3[C@@H](O)[C@H](n4ccc5c(=O)[nH]c(N)nc54)O[C@@H]3COP(O)(=S)O[C@H]3[C@@H](O)[C@H](n4ccc(=O)[nH]c4=O)O[C@@H]3COP(O)(=S)O[C@H]3[C@@H](O)[C@H](n4ccc(N)nc4=O)O[C@@H]3COP(O)(=S)O[C@H]3[C@@H](O)[C@H](n4ccc5c(=O)[nH]c(N)nc54)O[C@@H]3COP(O)(=S)O[C@H]3[C@@H](O)[C@H](n4ccc(=O)[nH]c4=O)O[C@@H]3CO)[C@H]2O)c(=O)n1` (some centres undefined), the outcome (with Dendritic cell; in data set [1]; in [2]) was Active. In addition, the Activity result in the data set with spleen [3] and with spleen [4] was “Dose-dependent effect” each time.

With `Nc1ccn([C@@H]2O[C@H](COP(O)(=S)O[C@H]3[C@@H](O)[C@H](n4ccc(=O)[nH]c4=O)O[C@@H]3COP(O)(=S)O[C@H]3[C@@H](O)[C@H](n4ccc(=O)[nH]c4=O)O[C@@H]3COP(O)(=S)O[C@H]3[C@@H](O)[C@H](n4ccc(N)nc4=O)O[C@@H]3COP(O)(=S)O[C@H]3[C@@H](O)[C@H](n4cnc5c(=O)[nH]c(N)nc54)O[C@@H]3COP(O)(=S)O[C@H]3[C@@H](O)[C@H](n4ccc(=O)[nH]c4=O)O[C@@H]3COP(O)(=S)O[C@H]3[C@@H](O)[C@H](n4ccc(N)nc4=O)O[C@@H]3COP(O)(=S)O[C@H]3[C@@H](O)[C@H](n4cnc5c(=O)[nH]c(N)nc54)O[C@@H]3COP(O)(=S)O[C@H]3[C@@H](O)[C@H](n4ccc(=O)[nH]c4=O)O[C@@H]3CO)[C@@H](OP(O)(=S)OC[C@H]3O[C@@H](n4ccc(=O)[nH]c4=O)[C@H](O)[C@@H]3OP(O)(=S)OC[C@H]3O[C@@H](n4cnc5c(=O)[nH]c(N)nc54)[C@H](O)[C@@H]3OP(O)(=S)OCC(O)COP(O)(=S)O[C@H]3[C@@H](O)[C@H](n4cnc5c(=O)[nH]c(N)nc54)O[C@@H]3COP(O)(=S)O[C@H]3[C@@H](O)[C@H](n4ccc(=O)[nH]c4=O)O[C@@H]3COP(O)(=S)O[C@H]3[C@@H](O)[C@H](n4ccc(N)nc4=O)O[C@@H]3COP(O)(=S)O[C@H]3[C@@H](O)[C@H](n4ccc(=O)[nH]c4=O)O[C@@H]3COP(O)(=S)O[C@H]3[C@@H](O)[C@H](n4ccc(=O)[nH]c4=O)O[C@@H]3COP(O)(=S)O[C@H]3[C@@H](O)[C@H](n4ccc(N)nc4=O)O[C@@H]3COP(O)(=S)O[C@H]3[C@@H](O)[C@H](n4cnc5c(=O)[nH]c(N)nc54)O[C@@H]3COP(O)(=S)O[C@H]3[C@@H](O)[C@H](n4ccc(=O)[nH]c4=O)O[C@@H]3COP(O)(=S)O[C@H]3[C@@H](O)[C@H](n4ccc(N)nc4=O)O[C@@H]3COP(O)(=S)O[C@H]3[C@@H](O)[C@H](n4cnc5c(=O)[nH]c(N)nc54)O[C@@H]3COP(O)(=S)O[C@H]3[C@@H](O)[C@H](n4ccc(=O)[nH]c4=O)O[C@@H]3CO)[C@H]2O)c(=O)n1` (some centres undefined), the Activity entry with PBMC [5], with PBMC [6], in the data set with PBMC [7], with PBMC [9], with PBMC [10] and with PBMC [11] was “Dose-dependent effect” throughout. In data set [8], the remaining at 10 min came out at 56%. Moreover, the outcome in [1] was Active. The outcome in data set [2] was inactive.
